This is an account of results in patent US8395037B2, “Pharmaceutical compositions for treating/preventing motor organ diseases” (Mitsubishi Corporation, priority 2005, dated 2013).

The test system of data set [1] is proteoglycan. Put plainly: Cartilage matrix (proteoglycan) production in cultured chondrocytes (ELISA). It counts as cell-based, human. Conditions: for Cartilage matrix (proteoglycan)-synthesizing ability: decreased by IL-1β or H2O2, 50 and 100 μM, 24 h. As for the experimental part: Chondrocytes isolated from human articular cartilage tissues were used for cultured cells. After obtaining informed consent, cartilage tissues were collected from surgically-removed tissues from eight osteoarthritis patients. The collected tissues were sliced and then treated in a liquid low-glucose Dulbecco's modified Eagle's medium (DMEM, manufactured by Gibco Co.) containing 1.5 mg/ml collagenase B at 37° C. overnight, to isolate chondrocytes for culture. The cells were normally cultured in a culture flask (culture area: 25 cm^2), and in a polystyrene culture dish (diameter: 6 cm) for use in the experiments. The cell culture was performed using a DMEM medium added with inactivated fetal bovine serum (FBS, manufactured by TRACE Co.) at 10% volume of the medium, and also 2 mM L-glutamine, 25 mM HEPES, and penicillin and streptomycin at 100 units/ml, in either a CO2 incubator (normoxic condition) which was set at 5% CO2+95% air, or a low oxygen chamber (hypoxic condition) which was set at 1% O2+5% CO2+94% N2, at 37° C. under saturated humidity.
Influence of hydroxylated 60 fullerene on cartilage matrix (proteoglycan or type II collagen) production ability decreased by cartilage catabolism inducers was analyzed using ELISA.
Chondrocytes that had been isolated and cultured by the above method (1) were subjected to two secondary cultures. Then, these cells in a subconfluent state were disseminated into a 24 well-culture plate at 1×10^5 cells/well. After incubation for 12 hours, the wells were washed with PBS and the medium was replaced with a fresh 10% FBS-containing DMEM. […]
The production quantities (concentrations) of the cartilage matrix (proteoglycan and type II collagen) in the culture supernatant were determined using ELISA kits (a kit for proteoglycan, manufactured by BioSource; and a kit for type II collagen, manufactured by Chondrex, Inc.), which is the standard technique currently known in the art.

In the next data set the test system is MMP-1. The data set is described as follows: MMP-1 concentration in synovial fluid of osteoarthritis model knee joints (ELISA). In kind it is in vivo, rabbit. Conditions: various concentrations, sequential measurement, versus control knees. Here is the method:
Sequential biochemical examinations of blood and synovial fluid were also performed (pre-administration and fourth- and eighth-week post-administration of water-solubilized fullerene). The observed biochemical examination items were (A) hepatic function (GOT and GPT), renal function (urea nitrogen and creatinine), and electrolytes (Na, K, and Cl), (B) extracellular matrix-degrading enzyme production ability (MMP-1, 3, and 13), and (C) cartilage matrix-synthesizing ability (proteoglycan). The items of (A) were measured by commercially available testing equipments and items of (B) and (C) were measured by ELISA method.

The test system of data set [2] is proteoglycan. Put plainly: Proteoglycan production in cultured chondrocytes (western blotting). Conditions: chondrocytes treated with cartilage degenerating factors. In kind it is cell-based, human. As for the experimental part: Chondrocytes prepared according to the above method and chondrocytes of the control groups were collected with a cell scraper, and centrifuged to remove the supernatant. Then, 0.5% Triton X-100 aqueous solution was added thereto, and ultrasonic disintegration was performed on ice for one minute, to obtain a protein extract. The concentrations of the respective protein solutions were measured, and each sample was placed on 5% to 10% gradient SDS-polyacrylamide electrophoresis gel at 100 ng/lane, and subjected to electrophoresis.
Proteins in the gel were transferred onto a polyvinylidene difluoride membrane (manufactured by Pharmacia Co.) using a semidry blotting apparatus (manufactured by Amersham). The membrane was blocked with 5% skim milk (manufactured by Morinaga Co.), and then treated with 5 μg/ml of anti-proteoglycan monoclonal antibodies (manufactured by Chemicon Co.) at room temperature for one hour. The membrane was washed with PBS containing 0.01% Tween-20 (hereunder, abbreviated as “TPBS”), and then treated with 5,000-fold-diluted peroxidase-labeled anti-mouse IgG antibodies (manufactured by Amersham) as secondary antibodies, at room temperature for one hour. […]
Background: Immunoblotting shows a protein as a band on a membrane.

The subject of data set [3] is osteoarthritis model rabbits.
Experimental: Osteoarthritis animal model was prepared according to a general method. NZW-strain male rabbits (2 to 2.5 kg, purchased from Kitayama Labes Co.) were habituated for about one week, and both knee joint sites were shaved and disinfected with an iodine antiseptic agent under anesthesia with a combined administration of ketamine hydrochloride and xylazine (intramuscular administration, or intravenous administration if the anesthetic effect was low). The epidermis inside the knee joints was incised to expose the anterior cruciate ligament and medial collateral ligament, which were then cut out. After confirming and incising the articular capsule, the medial meniscus was exposed and totally extracted. Tissues around the articular capsule, patellar tendon, and epidermis were sutured thereafter. At the time of suturing, the operated site was washed with a physiological salt solution containing an antibiotic (injectable Viccillin, Meiji Seika) (500 mg (titer) as ampicillin sodium/20.0 ml of physiological saline solution).
From the postoperative first week, 2.0 ml of a hydroxylated C60 fullerene solution (100 μM, adjusted with the solvent polyethylene glycol) was injected into the right knee joint cavity, and 2.0 ml of solvent alone was injected into the left knee joint cavity, using a 23-gauge injection needle intraarticularly twice a week. […] Thickness of the degenerated cartilage layer and the number of chondrocytes in the degenerated cartilage layer were measured. The thickness of the degenerated cartilage layer was expressed as a relative value assuming that the immediate postoperative thickness (zeroth week) was 100%.
Moreover, proteoglycan content decrease in articular cartilage involved with cartilage degeneration was evaluated by safranin O staining. The evaluation result was expressed as an area ratio (%) to immediate postoperative proteoglycan-stained area.

For hydroxylated C60 fullerene, the “Cartilage matrix (proteoglycan)-synthesizing ability” value in the data set with proteoglycan [1] was “restored cartilage matrix synthesis”; in the data set with proteoglycan [1] (listed as hydroxylated 60 fullerene), “able to restore the decreased synthesizing ability”. Moreover, the Proteoglycan synthesizing ability entry in the data set on proteoglycan [1] (fullerene alone, versus control groups) is given as “increased as compared to that of the control groups”. For the same substance, in the data set on MMP-1, the “MMP-1 concentration in synovial fluid” value was “MMP-1 production inhibitory effect was observed”. For the same substance, the “Production of proteoglycan (western blotting)” value is “the inhibition against the production of cartilage matrix, proteoglycan, due to the cartilage degenerating factors was inhibited” in the data set on proteoglycan [2] and “restored” in the data set with proteoglycan [2] (listed as fullerene). Also, the “Chondrocytes and cartilage matrix, histology” value in data set [3] (100 μM, 2.0 ml intraarticular twice a week, postoperative sixth and eighth week) is “histologically maintained”. In addition, the “Degeneration of the knee joint cartilage tissue” value in data set [3] (100 μM, 2.0 ml intraarticular twice a week, versus solvent alone) is “mild”. Also, in data set [3] (rabbit, in vivo), the “Swelling/flare in articular local parts, influence on systemic condition” value is “neither swelling/flare in articular local parts nor influence on systemic condition was observed”.
